Experimental data from ChEMBL document CHEMBL2010645, “N-Caffeoyl serotonin as selective COX-2 inhibitor” (Bioorg Med Chem Lett, 2012).

Tests used:
[1] = target: T1, Prostaglandin G/H synthase 2 (Homo sapiens) (UniProt P35354); test: Inhibition of COX2 at 400 uM after 5 mins by spectrophotometric analysis
T1 sequence (whole entry): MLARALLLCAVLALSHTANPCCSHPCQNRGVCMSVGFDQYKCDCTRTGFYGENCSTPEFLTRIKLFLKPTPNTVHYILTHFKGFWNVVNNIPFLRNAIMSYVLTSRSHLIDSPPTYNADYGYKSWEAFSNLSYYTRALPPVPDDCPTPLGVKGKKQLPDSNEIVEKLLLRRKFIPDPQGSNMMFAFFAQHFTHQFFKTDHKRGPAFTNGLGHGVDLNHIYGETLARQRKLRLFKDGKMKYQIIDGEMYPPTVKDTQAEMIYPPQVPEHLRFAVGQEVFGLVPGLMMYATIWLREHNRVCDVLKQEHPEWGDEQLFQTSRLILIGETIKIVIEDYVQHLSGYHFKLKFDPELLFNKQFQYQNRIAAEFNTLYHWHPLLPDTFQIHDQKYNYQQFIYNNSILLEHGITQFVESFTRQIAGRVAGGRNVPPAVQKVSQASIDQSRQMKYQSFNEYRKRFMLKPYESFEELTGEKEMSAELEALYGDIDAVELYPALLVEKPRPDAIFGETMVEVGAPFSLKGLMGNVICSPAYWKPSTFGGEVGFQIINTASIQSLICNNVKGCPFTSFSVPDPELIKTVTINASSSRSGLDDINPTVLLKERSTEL

[2] = target: T2, Prostaglandin G/H synthase 1 (Homo sapiens, UniProt P23219); test: Inhibition of COX1 after 5 mins by spectrophotometric analysis
[3] = target: T3, Prostaglandin G/H synthase 2 (Homo sapiens, UniProt P35354); test: Inhibition of COX2 after 5 mins by spectrophotometric analysis
T3 sequence (P35354 whole entry): T1 sequence (whole entry)

[4] = target: T2, Prostaglandin G/H synthase 1; test: Inhibition of COX1 at 400 uM after 5 mins by spectrophotometric analysis
[5] = target: T3, Prostaglandin G/H synthase 2; test: Uncompetitive inhibition of COX2 by Lineweaver-Burk plot analysis

T2 sequence (P23219 whole entry): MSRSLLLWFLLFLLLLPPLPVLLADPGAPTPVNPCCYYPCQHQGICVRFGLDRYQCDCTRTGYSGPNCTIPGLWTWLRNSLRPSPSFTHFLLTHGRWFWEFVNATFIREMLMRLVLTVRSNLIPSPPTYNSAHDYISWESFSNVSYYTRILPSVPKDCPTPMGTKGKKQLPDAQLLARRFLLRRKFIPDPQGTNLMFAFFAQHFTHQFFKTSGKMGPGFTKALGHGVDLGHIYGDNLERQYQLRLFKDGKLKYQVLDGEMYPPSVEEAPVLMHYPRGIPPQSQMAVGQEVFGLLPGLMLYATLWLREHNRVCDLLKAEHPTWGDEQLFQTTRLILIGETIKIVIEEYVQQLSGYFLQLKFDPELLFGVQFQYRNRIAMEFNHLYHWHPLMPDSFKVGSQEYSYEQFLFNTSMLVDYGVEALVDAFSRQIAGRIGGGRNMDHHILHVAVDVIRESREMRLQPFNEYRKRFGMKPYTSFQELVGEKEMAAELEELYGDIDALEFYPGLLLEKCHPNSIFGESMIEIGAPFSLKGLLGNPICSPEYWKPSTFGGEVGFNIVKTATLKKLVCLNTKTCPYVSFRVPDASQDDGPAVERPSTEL

Structure (SMILES) | inhibition [1] [%] | IC50 [2] [µM] | IC50 [3] [µM] | inhibition [4] [%] | Ki [5] [µM]
CC(=O)Oc1ccccc1C(=O)O | 19.3 | – | – | – | –
NCCc1c[nH]c2ccc(O)cc12 [SEROTONIN] | – | > 400 | > 400 | – | –
COc1ccc(/C=C/C(=O)NCCc2c[nH]c3ccc(O)cc23)cc1O | 8 | – | – | 7 | –
O=C(/C=C/c1ccc(O)c(O)c1)NCCc1c[nH]c2ccc(O)cc12 [N-CAFFEOYLSEROTONIN] | 70.5 | > 400 | 42.5 | 40.6 | 65.5
O=C(/C=C/c1ccc(O)cc1)NCCc1c[nH]c2ccc(O)cc12 | 13.9 | – | – | 12.5 | –
O=C(/C=C/c1ccccc1)NCCc1c[nH]c2ccc(O)cc12 | 8.2 | – | – | 18.2 | –
COc1ccc(/C=C/C(=O)NCCc2c[nH]c3ccc(O)cc23)cc1 | 6.5 | – | – | 21.3 | –

Second part, the compound after the results:

inhibition [1] [%] | IC50 [2] [µM] | IC50 [3] [µM] | inhibition [4] [%] | Ki [5] [µM] | Structure (SMILES)
– | 39.2 | 28 | – | – | COc1cc(/C=C/C(=O)O)cc(OC)c1O [SINAPINATE]
18.8 | – | – | 2.7 | – | COc1cc(/C=C/C(=O)NCCc2c[nH]c3ccc(O)cc23)ccc1O
27.2 | > 400 | > 400 | 44.9 | – | COc1cc(/C=C/C(=O)NCCc2c[nH]c3ccc(O)cc23)cc(OC)c1O [N-SINAPOYL SEROTONIN]
– | > 400 | – | – | – | O=C(O)/C=C/c1ccc(O)c(O)c1 [CAFFEIC ACID]
18.2 | – | – | 29.9 | – | COc1ccc(/C=C/C(=O)NCCc2c[nH]c3ccc(O)cc23)cc1OC
